# Laboratory results from patent US10640507B2, “PBD antibacterial agents” (KING'S COLLEGE LONDON, priority 2015, dated 2020).
# Assays:
# K. pneumonia - M6 = test: Time kill kinetics; format: cell-based; conditions: drug at 4×MIC
# Protocol: 1. Grow bacteria overnight.
# 2. Subculture into an autoclaved conical flask containing 10 ml of TSB to an OD of 0.01 (˜1×10^7 Cfu/ml for KP-M6).
# 4. Take aliquots (100 μl) at timepoints (0, 1, 2, 4, 6, 24 hours) and carry out a serial dilution in PBS (to remove drug and to dilute bacteria to countable numbers).
# 5. Use the serial dilution to perform a Miles Misra—i.e. Add 3×10 μl spots of each dilution onto an agar plate. Incubate overnight and count colonies on spots in the morning.
# 6. Control: Subculture bacteria alongside samples but with no antibiotic added. Take aliquots from this at every time point (0, 1, 2, 4, 6, 24 hours) and perform Miles Misra on these too (as detailed in points 4 and 5 above).
# 7. After the first experiment, if the counts seen on Miles-Misra were zero, total viable counts were determined by spreading 200 μl in a streak down the centre of a TSB agar plate, waiting for the liquid to be absorbed and then spreading over the plate and checking for growth inhibition at the sight of the original streak.
# 8. The compound is considered bactericidal if the inoculum was reduced >3 log10 CFU/ml and bacteriostatic if inoculum was reduced by 0-3 log10 CFU/ml.
# Three measurements were taken for each compound at each time point. These measurements were averaged and the standard deviation was also calculated.
# Klebsiella KP 342 = test: General MIC protocol, Gram negative; format: cell-based; conditions: Klebsiella, KP342
# Protocol: General Minimum Inhibitory Concentration (MIC) Protocol
# 1. Grow up cultures of bacterial strains to be tested overnight.
# 2. Dilute down overnight cultures to concentration of 1×10^6 bacteria/ml (OD0.01) in Tryptic soy broth (TSB).
# 3. Add 100 μl of TSB media to column 2-column 12 in 96 well plate (keeping column 1 clear).
# 4. Make up compound to a concentration of 64 μg/ml in water (or alternatively to twice the chosen maximum concentration to be tested).
# 5. Add 100 μl of antibiotic solution to the 1st and 2nd columns.
# 6. Using a multichannel pipette take 100 μl from the 2nd column wells and pipette into 3rd column wells and repeat down the 96 well plate (remembering to include controls i.e. uninfected media and media with no antibiotic).
# 7. To each well (except uninfected control row H) add 100 μl of bacterially infected media at a concentration of 1×10^6/ml.
# 8. This dilutes down the concentration of the antibiotic by half (top dose is therefore 32 μg/ml in column 1) and also gives you a starting bacterial concentration of 5×10^5/ml.
# 9. Wrap plate with parafilm to prevent evaporation.
# 10. Leave at desired temperature (37° C. unless specified elsewhere) for 20 hours.
# 11. Next day check plates for growth and measure optical density (i.e. absorbance) at a wavelength of 600 nm (OD600).
# An example of such a plate is shown in FIG. 1 where column A represents wells that receive the top dose 100 μl; column B represents wells that receive the top dose 100 μl+100 μl TSB; and column C represents wells that receive 100 μl TSB. Row H which is marked by a box labelled D represents a blank where the cells receive no bacteria.
# The minimum inhibitory concentration (MIC) was measured using the general MIC protocol given above.
compound,measurement,setting,value
"COc1cc2c(cc1OCCCC(=O)Nc1cc(C(=O)Nc3ccc4sc(C(=O)N(C)C)cc4c3)n(C)c1)N=C[C@@H]1CCCN1C2=O [KMR-14-33, (S)—N-(2-(dimethylcarbamoyl)benzo[b]thiophen-5-yl)-4-(4-((7-methoxy-5-oxo-2,3,5,11a-tetrahydro-1H-benzo[e]pyrrolo[1,2-a][1,4]-diazepin-8-yl)oxy)butanamido)-1-methyl-1H-pyrrole-2-carboxamide]",Average (Log CFU/ml),K. pneumonia - M6; time-point 1 hours,2667 CFU/ml
same,n = 1 (Log CFU/ml),K. pneumonia - M6; time-point 1 hours,3000 CFU/ml
same,n = 2 (Log CFU/ml),K. pneumonia - M6; time-point 1 hours,3000 CFU/ml
same,n = 3 (Log CFU/ml),K. pneumonia - M6; time-point 1 hours,2000 CFU/ml
same,Average (Log CFU/ml),K. pneumonia - M6; time-point 2 hours,0 CFU/ml
same,n = 2 (Log CFU/ml),K. pneumonia - M6; time-point 2 hours,0 CFU/ml
same,n = 3 (Log CFU/ml),K. pneumonia - M6; time-point 2 hours,0 CFU/ml
same,viable count,K. pneumonia - M6; time-point 2 hours,0 CFU/mL
same,Average (Log CFU/ml),K. pneumonia - M6; time-point 4 hours,0 CFU/ml
same,n = 2 (Log CFU/ml),K. pneumonia - M6; time-point 4 hours,0 CFU/ml
same,n = 3 (Log CFU/ml),K. pneumonia - M6; time-point 4 hours,0 CFU/ml
same,viable count,K. pneumonia - M6; time-point 4 hours,0 CFU/mL
same,Average (Log CFU/ml),K. pneumonia - M6; time-point 6 hours,0 CFU/ml
same,n = 2 (Log CFU/ml),K. pneumonia - M6; time-point 6 hours,0 CFU/ml
same,n = 3 (Log CFU/ml),K. pneumonia - M6; time-point 6 hours,0 CFU/ml
same,viable count,K. pneumonia - M6; time-point 6 hours,0 CFU/mL
same,Average (Log CFU/ml),K. pneumonia - M6; time-point 24 hours,0 CFU/ml
same,n = 2 (Log CFU/ml),K. pneumonia - M6; time-point 24 hours,0 CFU/ml
same,n = 3 (Log CFU/ml),K. pneumonia - M6; time-point 24 hours,0 CFU/ml
same,viable count,K. pneumonia - M6; time-point 24 hours,0 CFU/mL
"COc1cc2c(cc1OCCCC(=O)Nc1cc(C(=O)Nc3ccc4oc(C(=O)N5CCSCC5)cc4c3)n(C)c1)N=C[C@@H]1CCCN1C2=O [PP-A148, (S)-4-(4-((7-methoxy-5-oxo-2,3,5,11a-tetrahydro-1H-benzo-[e]pyrrolo[1,2-a][1,4]diazepin-8-yl)oxy)butanamido)-1-methyl-N-(2-(thiomorpholine-4-carbonyl)benzofuran-5-yl)-1H-pyrrole-2-carboxamide]",MIC,Klebsiella KP 342,4 to 8 µg/mL
